In ChEMBL document CHEMBL4364246, “Synthesis and biological evaluation of 5-aminoethyl benzophenanthridone derivatives as DNA topoisomerase IB inhibitors” (Eur J Med Chem, 2019):

What was measured:
[1] = Half life in Sprague-Dawley rat at 1 mg/kg, iv measured for 0.083 to 4 hrs by LC-MS/MS analysis; assay type: ADME, organism-based; conditions: in vivo
[2] = test system: HCT-116; test: Induction of apoptosis in human HCT116 cells assessed as viable cells at 0.5 uM incubated for 24 hrs by FITC and PI staining based flow cytometric analysis (reference value: 99.27%); assay type: functional; conditions: HCT-116, 24 h, read-out: Activity
[3] = test system: HCT-116; test: Antitumour activity against human HCT116 cells xenografted in athymic nude nu/nu mouse assessed as inhibition in tumor weight at 5 mg/kg administrated daily by caliper method relative to control; assay type: functional
[4] = Acute toxicity in Kunming mouse assessed as mortality at 300 mg/kg, ip administrated as single dose measured within 5 days after drug administration; assay type: organism-based; conditions: in vivo, 120 h
[5] = test system: MCF7; test: Antitumour activity against human MCF7 cells xenografted in athymic nude nu/nu mouse assessed as inhibition in tumor weight at 10 mg/kg administrated daily by caliper method relative to control; assay type: functional
[6] = test system: MCF7; test: Antitumour activity against human MCF7 cells xenografted in athymic nude nu/nu mouse assessed as inhibition in tumor weight at 5 mg/kg administrated daily by caliper method relative to control; assay type: functional
[7] = Acute toxicity in Kunming mouse assessed as mortality at 153.6 to 240 mg/kg, ip administrated as single dose measured for 7 days post drug administration; assay type: organism-based; conditions: in vivo, 168 h
[8] = test system: MCF7; test: Antitumour activity against human MCF7 cells xenografted in ip dosed athymic nude nu/nu mouse assessed as reduction in tumor volume administrated daily by caliper method; assay type: functional, organism-based
[9] = AUC (0 to infinity) in Sprague-Dawley rat at 1 mg/kg, iv measured for 0.083 to 4 hrs by LC-MS/MS analysis; assay type: ADME, organism-based; design: dose 1 mg/kg, route intravenous, time infinity; conditions: in vivo
[10] = Acute toxicity in ip dosed Kunming mouse assessed as mortality administrated for 7 days; assay type: organism-based; conditions: in vivo, 168 h
[11] = Growth inhibition of human DU145/RC0.1 cells harboring TOP1 R364H mutant incubated for 72 hrs by MTT assay; assay type: functional; conditions: DU-145, 72 h
[12] = test system: HCT-116; test: Induction of apoptosis in human HCT116 cells assessed as viable cells at 2 uM incubated for 24 hrs by FITC and PI staining based flow cytometric analysis (reference value: 99.27%); assay type: functional; conditions: HCT-116, 24 h, read-out: Activity
[13] = test system: MCF7; test: Antitumour activity against human MCF7 cells xenografted in athymic nude nu/nu mouse assessed as inhibition in tumor weight at 20 mg/kg administrated daily by caliper method relative to control; assay type: functional
[14] = AUC (0 to t) in Sprague-Dawley rat at 5 mg/kg, ig measured for 0.083 to 4 hrs by LC-MS/MS analysis; assay type: ADME, organism-based; design: time upper 4 hr, dose 5 mg/kg, time lower 0.083 hr, route […]; conditions: in vivo, po
[15] = test system: HCT-116; test: Antitumour activity against human HCT116 cells xenografted in ip dosed athymic nude nu/nu mouse assessed as reduction in tumor volume administrated daily by caliper method; assay type: functional, organism-based
[16] = test system: HCT-116; test: Induction of apoptosis in human HCT116 cells assessed as increase in apoptotic cells incubated for 24 hrs by FITC and PI staining based flow cytometric analysis; assay type: functional, cell-based
[17] = test system: HCT-116; test: Antitumour activity against human HCT116 cells xenografted in athymic nude nu/nu mouse assessed as inhibition in tumor weight at 20 mg/kg administrated daily by caliper method relative to control; assay type: functional
[18] = test system: HCT-116; test: Antitumour activity against human HCT116 cells xenografted in athymic nude nu/nu mouse assessed as inhibition in tumor weight at 10 mg/kg administrated daily by caliper method relative to control; assay type: functional
[19] = Solubility of the compound in DMSO; assay type: physicochemical
[20] = test system: HCT-116; test: Induction of apoptosis in human HCT116 cells assessed as viable cells at 1 uM incubated for 24 hrs by FITC and PI staining based flow cytometric analysis (reference value: 99.27%); assay type: functional; conditions: HCT-116, 24 h, read-out: Activity
[21] = MRT (0 to infinity) in Sprague-Dawley rat at 1 mg/kg, iv measured for 0.083 to 4 hrs by LC-MS/MS analysis; conditions: in vivo
[22] = AUC (0 to t) in Sprague-Dawley rat at 1 mg/kg, iv measured for 0.083 to 4 hrs by LC-MS/MS analysis; assay type: ADME, organism-based; design: time 0.083-4 hr, dose 1 mg/kg, route intravenous; conditions: in vivo
[23] = target: T1, DNA topoisomerase 1 (Homo sapiens) (UniProt P11387); test: Inhibition of TOP1 in human HCT116 cells assessed as induction of cellular TOP1cc formation incubated for 1 hr by chemiluminescence based assay; assay type: cell-based
T1 sequence (whole entry): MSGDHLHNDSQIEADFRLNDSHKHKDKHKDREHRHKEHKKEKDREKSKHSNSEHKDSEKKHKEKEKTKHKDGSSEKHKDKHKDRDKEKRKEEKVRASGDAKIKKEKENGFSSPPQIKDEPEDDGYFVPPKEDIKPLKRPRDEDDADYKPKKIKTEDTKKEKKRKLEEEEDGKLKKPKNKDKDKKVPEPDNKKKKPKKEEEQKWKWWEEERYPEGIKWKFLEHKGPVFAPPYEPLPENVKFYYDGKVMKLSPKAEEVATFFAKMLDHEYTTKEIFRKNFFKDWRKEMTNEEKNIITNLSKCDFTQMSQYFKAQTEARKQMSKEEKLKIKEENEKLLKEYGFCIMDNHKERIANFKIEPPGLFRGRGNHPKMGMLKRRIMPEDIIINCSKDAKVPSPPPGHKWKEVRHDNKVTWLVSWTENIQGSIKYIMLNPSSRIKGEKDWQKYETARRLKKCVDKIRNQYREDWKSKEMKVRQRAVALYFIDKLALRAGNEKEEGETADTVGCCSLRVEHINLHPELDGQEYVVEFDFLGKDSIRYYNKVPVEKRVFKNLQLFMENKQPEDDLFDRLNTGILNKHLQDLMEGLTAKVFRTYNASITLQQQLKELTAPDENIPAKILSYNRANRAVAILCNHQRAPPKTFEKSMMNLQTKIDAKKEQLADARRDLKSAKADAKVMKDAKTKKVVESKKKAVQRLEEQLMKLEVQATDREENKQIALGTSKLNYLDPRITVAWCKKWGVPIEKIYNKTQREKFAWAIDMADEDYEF

[24] = Cmax in Sprague-Dawley rat at 5 mg/kg, ig measured for 0.083 to 4 hrs by LC-MS/MS analysis; assay type: ADME, organism-based; design: dose 5 mg/kg, route […]; conditions: in vivo, po

CNCCn1c(=O)c2cc(OC)c(OC)cc2c2ccc3cc4c(cc3c21)OCO4
half-life [1]: 1.21 h
viability at 0.5 µM [2]: 93.3%
inhibition in vivo at 5 mg/kg [3]: 49.3%
Activity [4]: Toxic
inhibition in vivo at 10 mg/kg [5]: 56.9%
inhibition in vivo at 5 mg/kg [6]: 44%
Activity [7]: Toxic
inhibition [8]: Dose-dependent effect
AUC(0-inf) [9]: 49.5 ng·h/mL
LD50 [10]: 192 mg/kg
GI50 [11]: 430 nM
viability at 2 µM [12]: 69.4%
inhibition in vivo at 20 mg/kg [13]: 71.8%
AUCt [14]: 48.3 ng·h/mL
inhibition [15]: Dose-dependent effect
Activity [16]: Dose-dependent effect
inhibition in vivo at 20 mg/kg [17]: 76.9%
inhibition in vivo at 10 mg/kg [18]: 64.5%
solubility [19]: Soluble
viability at 1 µM [20]: 88.1%
MRT inf [21]: 1.46 h
AUC(0-t) [22]: 47.2 ng·h/mL
Activity [23]: Dose-dependent effect
Cmax [24]: 19 ng/mL
